Assay results published in article PMC3658274, “Characterization of drug-induced transcriptional modules: towards drug repositioning and functional understanding” (Molecular Systems Biology, 2013).
pIC50, pKi: −log10 of the molar value. Values belong to the compound of their own block, whether it stands above or below them.

What was measured:
[1] = system: MCF7; assay: cells; set-up: Cell viability, Alamar Blue fluorescence; details: Homo sapiens, MCF7, 72 h
Method: (§1) HL60 (CPQ-054) was cultured as suspension cells in RPMI-1640 containing 10% FCS and penicillin/streptomycin. MCF7 (CPQ-072) cells were cultured as adherent cells in DMEM containing 10% FCS and penicillin/streptomycin. Cells were cultured at 37 °C in an atmosphere of 5% (HL60) or 10% (MCF7) CO2. For the assays, cells (5000 cells/well) were seeded in 150 μl medium on a 96-well cell culture plate and incubated overnight at 37 °C. The next day, cells were treated with different concentrations of selected chemicals from CMap. After 72 h, the viability of treated cells was measured after incubation for 4 h with the indicator dye Alamar Blue and fluorescence measurement at 590 nm. The single concentration of mephentermine (50 μM) was tested in quadruplicates. The IC50 curves for the predicted compounds (sulconazole, vinburnine) and their corresponding negative controls (butoconazole, moxisylyte hydrochloride) were prepared in eight semilog dilutions starting at 1E-5M and tested in duplicates. The reference compound staurosporine was prepared in eight decalog dilutions starting at 1E-5M. Standard solvent controls were performed using 0.1% DMSO. Treatment of cells with 0.1% DMSO and 1E-5M staurosporine served as high control (100% viability) and low control (0% viability), respectively. Raw data were converted into percent viability relative to high controls (solvent 0.1% DMSO) and low controls (1E-05M staurosporine), which were set to 100 and 0%, respectively. IC50 values were calculated using R package ‘drc’ ([Ritz and Streibig, 2005]) by fitting dose response data to a two-parametric log-logistic function with 0% growth as bottom constraint and 100% growth as top constraint. For cell cycle analysis, HL60 cells (ATCC CCL-240) were grown for 6 h with an initial concentration of 0.4 Mio/ml in 3 ml of medium before sulconazole (25 μM) and vinburnine (25 μM) (nocodazole, 200ng/ml as reference) were added. For three time points (24, 48 and 72 h), (un)treated cells were collected, fixed in 80% methanol for 24 h and further rehydrated in PBS/1%FCS at room temperature for 30 min before RNAse A (100 μg/ml) and PI (50 μg/ml) treatment. FACS (FACSCalibur, BD Biosciences) was empl

[2] = system: HL60; assay: cells; set-up: Cell viability, Alamar Blue fluorescence; details: Homo sapiens, HL-60, 72 h
Method: as §1

[3] = target: T1, PPARγ (peroxisome proliferator-activated receptor subtype-γ) (Homo sapiens, UniProt P37231); assay: biochemical; set-up: Cerep in vitro receptor binding assay (agonist ligand), per cent inhibition at 50 uM and Ki by Cheng-Prusoff; details: read-out: % inhibition
T1 construct: gene PPARG
T1 sequence (P37231 1-505): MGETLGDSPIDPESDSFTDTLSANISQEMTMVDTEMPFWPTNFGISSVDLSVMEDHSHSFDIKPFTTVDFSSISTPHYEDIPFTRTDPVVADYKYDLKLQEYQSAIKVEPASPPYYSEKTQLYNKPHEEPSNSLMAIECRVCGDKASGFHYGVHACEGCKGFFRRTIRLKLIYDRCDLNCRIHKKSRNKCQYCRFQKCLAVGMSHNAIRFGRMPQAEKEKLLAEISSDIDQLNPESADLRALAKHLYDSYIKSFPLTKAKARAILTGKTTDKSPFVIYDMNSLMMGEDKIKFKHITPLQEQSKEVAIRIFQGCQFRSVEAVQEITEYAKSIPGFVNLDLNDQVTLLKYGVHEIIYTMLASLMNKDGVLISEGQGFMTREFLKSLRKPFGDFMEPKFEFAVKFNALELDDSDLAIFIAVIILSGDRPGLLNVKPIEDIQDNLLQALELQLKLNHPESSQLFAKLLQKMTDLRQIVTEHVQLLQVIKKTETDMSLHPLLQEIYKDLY
Method: (§2) In vitro binding assays were performed by the company Cerep for α-2 adrenergic receptor (agonist, ref. 3443), estrogen receptor-α(ERα, agonist, ref. 0484) and PPARγ (agonist, ref. 0641). Similarly, Cerep carried out the cellular assays of 2C-1 adrenergic receptor (α1B, agonist effect, ref. 1901) and ERα (antagonistic effect, ref. 3495). […] The effect of chemicals were initially evaluated at 50 μM, and Ki values were further determined for chemicals with more than 40% activity in initial assessment. As explained above, R package ‘drc’ ([Ritz and Streibig, 2005]) was utilized to calculate IC50 values using a two-parametric log-logistic function with 0% as minimum and 100% as maximum. Ki values were generated from the IC50 values using Cheng–Prusoff equation.

[4] = target: T1, PPARγ (peroxisome proliferator-activated receptor subtype-γ); assay: in vitro binding assay (Cerep, agonist, ref. […]), Ki from IC50 by Cheng-Prusoff
[5] = target: T2, ADRA1B (Homo sapiens, UniProt P35368); assay: cell-based; set-up: Cerep cellular alpha1B adrenergic receptor agonist effect assay (ref. 1901); details: read-out: Agonist
T2 sequence (P35368 1-520): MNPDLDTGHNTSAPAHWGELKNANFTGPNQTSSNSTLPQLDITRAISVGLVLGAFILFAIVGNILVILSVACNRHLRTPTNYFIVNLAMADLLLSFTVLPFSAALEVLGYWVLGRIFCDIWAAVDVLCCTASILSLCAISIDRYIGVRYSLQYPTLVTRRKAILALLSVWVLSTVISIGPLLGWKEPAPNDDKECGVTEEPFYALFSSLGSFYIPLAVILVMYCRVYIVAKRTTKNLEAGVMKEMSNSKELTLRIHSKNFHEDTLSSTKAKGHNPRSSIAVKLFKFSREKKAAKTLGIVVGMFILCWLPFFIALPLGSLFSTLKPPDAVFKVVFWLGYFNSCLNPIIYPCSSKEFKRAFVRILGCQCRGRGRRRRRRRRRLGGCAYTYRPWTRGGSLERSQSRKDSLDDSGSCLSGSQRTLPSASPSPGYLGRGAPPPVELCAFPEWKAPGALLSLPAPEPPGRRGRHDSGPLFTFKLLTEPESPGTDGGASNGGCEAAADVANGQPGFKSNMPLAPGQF
Method: as §2

[6] = target: T3, ADRA2C (α-2 adrenergic receptor) (Homo sapiens, UniProt P18825); assay: biochemical; set-up: Cerep in vitro receptor binding assay (agonist ligand), per cent inhibition at 50 uM and Ki by Cheng-Prusoff; details: read-out: % inhibition
T3 sequence (P18825 1-462): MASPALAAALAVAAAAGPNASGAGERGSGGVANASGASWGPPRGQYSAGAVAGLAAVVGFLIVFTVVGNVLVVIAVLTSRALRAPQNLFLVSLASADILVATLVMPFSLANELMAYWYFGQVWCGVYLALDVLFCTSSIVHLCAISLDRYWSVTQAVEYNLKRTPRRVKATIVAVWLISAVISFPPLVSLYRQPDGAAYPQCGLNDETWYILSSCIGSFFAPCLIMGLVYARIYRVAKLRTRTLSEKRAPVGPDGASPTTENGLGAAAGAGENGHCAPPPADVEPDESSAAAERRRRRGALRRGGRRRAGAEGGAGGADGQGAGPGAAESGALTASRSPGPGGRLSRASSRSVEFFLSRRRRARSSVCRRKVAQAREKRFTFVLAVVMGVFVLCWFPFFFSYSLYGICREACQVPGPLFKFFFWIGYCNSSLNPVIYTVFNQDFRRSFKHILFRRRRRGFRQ
Method: as §2

[7] = target: T4, estrogen receptor-α (ERα) (Homo sapiens, UniProt P03372); assay: biochemical; set-up: Cerep in vitro receptor binding assay (agonist ligand), per cent inhibition at 50 uM and Ki by Cheng-Prusoff; details: read-out: % inhibition
T4 construct: gene ESR1
T4 sequence (P03372 1-595): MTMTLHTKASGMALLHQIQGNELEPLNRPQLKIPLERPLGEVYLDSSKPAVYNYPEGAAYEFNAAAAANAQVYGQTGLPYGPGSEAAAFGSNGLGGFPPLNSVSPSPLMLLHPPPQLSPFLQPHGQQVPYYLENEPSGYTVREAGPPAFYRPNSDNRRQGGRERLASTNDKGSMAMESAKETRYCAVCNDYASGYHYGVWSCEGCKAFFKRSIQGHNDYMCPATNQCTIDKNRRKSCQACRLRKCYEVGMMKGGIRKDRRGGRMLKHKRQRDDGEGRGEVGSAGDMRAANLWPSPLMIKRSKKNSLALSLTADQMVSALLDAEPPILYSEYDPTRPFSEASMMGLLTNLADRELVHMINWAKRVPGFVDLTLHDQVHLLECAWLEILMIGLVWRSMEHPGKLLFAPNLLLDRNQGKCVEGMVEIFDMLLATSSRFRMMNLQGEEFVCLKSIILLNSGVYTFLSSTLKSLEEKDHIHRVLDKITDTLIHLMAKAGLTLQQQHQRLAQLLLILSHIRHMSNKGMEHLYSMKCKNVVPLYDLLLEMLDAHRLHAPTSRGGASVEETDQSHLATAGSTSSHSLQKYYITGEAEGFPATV

[8] = target: T5, estrogen receptor-α (ERα) (Homo sapiens, UniProt P03372); assay: in vitro binding assay (Cerep, agonist, ref. […]), Ki from IC50 by Cheng-Prusoff; authors call it ambiguous
T5 construct: gene ESR1

[9] = target: T4, estrogen receptor-α (ERα); assay: cell-based; set-up: Cerep cellular ER alpha antagonist effect assay (ref. 3495); details: read-out: Antag./Inhibitor
Method: as §2

pIC50 [1]: 4.64 | pIC50 [2]: 5.41
Structure (SMILES): Clc1ccc(CCC(Cn2ccnc2)Sc2c(Cl)cccc2Cl)cc1 (stereo not shown) [Butoconazole]

inhibition at 50 µM [3]: < 20%
Structure (SMILES): COC(=O)C1=CO[C@@H](C)[C@H]2CN3CCc4c([nH]c5ccccc45)[C@@H]3C[C@H]12 [Raubasine]

Structure (SMILES): CCCOc1ccccc1-c1nc2nn[nH]c2c(=O)[nH]1 [zaprinast]
pKi [4]: 4.85 | inhibition at 50 µM [3]: 57%

activity at 50 µM [5]: < 20% | inhibition at 50 µM [6]: 59%
Structure (SMILES): CCCCC(CC)CN1CN(CC(CC)CCCC)CC(C)(N)C1 (stereo not shown) [hexetidine]

activity at 50 µM [5]: < 20% | inhibition at 50 µM [6]: < 20%
Structure (SMILES): C=CC(N)CCC(=O)O (stereo not shown) [Vigabatrin]

Structure (SMILES): CCOC(=O)C1=C(C)NC(C)=C(C(=O)OC)C1c1cccc([N+](=O)[O-])c1 (stereo not shown) [nitrendipine]
inhibition at 50 µM [7]: 49% | pKi [8]: ~4.34

inhibition at 50 µM [9]: 26.3%
Structure (SMILES): COc1cc(C(=O)OCCCN2CCCN(CCCOC(=O)c3cc(OC)c(OC)c(OC)c3)CC2)cc(OC)c1OC [Dilazep]

pIC50 [1]: < 4.30 | pIC50 [2]: < 4.30
Structure (SMILES): CC(=O)Oc1cc(C(C)C)c(OCCN(C)C)cc1C [Moxisylyte]

Structure (SMILES): COc1cc([C@@H]2c3cc4c(cc3[C@H](O)[C@H]3COC(=O)[C@H]23)OCO4)cc(OC)c1OC [Podophyllotoxin]
activity at 50 µM [5]: < 20% | inhibition at 50 µM [6]: < 20%
